From patent US20090118375A1, “Optically active phthalamides” (priority 2004, published 2009)

Experiments:
[1] = tested on: Lucilia cuprina 1st instar larvae; assay: Blowfly larval assay (Lucilia cuprina); format: in vivo; settings: 100 ppm
Description: (§1) 10 mg active compound are dissolve in 0.5 ml dimethyl sulphoxide. Serial dilutions are made to obtain the desired rates.
Approximately 20 Lucilia cuprina 1st instar larvae are transferred into a test tube containing 1 cm^3 of minced horse meat and 0.5 ml aqueous dilution of test compound. After 48 hrs percentage of larval mortality are recorded.
100% efficacy=all larvae are killed 0% efficacy=normally developed larvae after 48 hrs

[2] = tested on: Boophilus microplus (SP-resistant Parkhurst strain); assay: Boophilus microplus test (INJ), resistant cattle tick, injection method; format: in vivo; settings: concentration of active compound 20 μM, injection into abdomen of adult satiated females
Description: Test with Resistant Monoxenic Cattle Tick/SP-Resistant Parkhurst Strain Injection Method
Boophilus microplus (INJ)
10 mg active compound are dissolve in 0.5 ml Dimethylsulfoxid. Serial dilutions are made to obtain the desired rates.
The test is carried out in 5 replications. 1 μl of the solutions is injected into the abdomen, and the animals are transferred to dishes and kept in a climate-controlled room. After 7 days, activity is checked by examination for deposition of fertile eggs. Eggs whose fertility is not externally visible are stored in glass tubes in a controlled-environment cabinet until the larvae have hatched after ca. 24 days. An activity of 100% denotes that none of the ticks has laid fertile eggs.

Musca domestica = assay: Housefly assay (Musca domestica); format: in vivo; settings: 100 ppm, adult flies
Description: as §1
Prior to the assay, a piece of kitchen sponge (ca. Ø 1.5 cm) is soaked with 0.8 ml of sugar solution and 0.2 ml of aqueous compound dilution and is placed into a container (4×4×2 cm). 10 adult Musca domestica flies (WHO/N strain) are anaesthetized by CO2 and also placed into the container. The container is closed with a perforated lid. […]
100% efficacy=all flies are killed 0% efficacy=no flies are killed

Plutella xylostella = assay: Plutella test; format: in vivo; settings: 20 ppm, cabbage leaves dipped
Description: (§2) To produce a suitable preparation of active compound, 1 part by weight of active compound is mixed with the stated amounts of solvent and emulsifier, and the concentrate is diluted with emulsifier-containing water to the desired concentration.
Cabbage leaves (Brassica oleracea) are treated by being dipped into the preparation of active compound of the desired concentration and are populated with caterpillars of the diamondback moth (Plutella xylostella) while the leaves are still moist.
After the desired period of time, the kill in % is determined. 100% means that all caterpillars have been killed; 0% means that none of the caterpillars have been killed.

Myzus persicae = assay: Myzus test (spray application); format: in vivo; settings: topical, 120 h, spray on Chinese cabbage leaves, after 5 d, read-out: Kill rate in % after 5 d
Description: Myzus Test (Spray Application)
as §2
Chinese cabbage leaves (Brassica pekinensis), which are infested by the green peach aphid (Myzus persicae), are treated by being sprayed with the preparation of the active compound of the desired concentration.
(§3) After the specified period of time, the mortality in % is determined. 100% means that all the […] have been killed; 0% means that none of the […] have been killed.

Spodoptera frugiperda = Spodoptera frugiperda test (spray application); format: in vivo; settings: topical, 168 h, 20 g/ha, spray on maize leaf slices, after 7 d, read-out: Kill rate in % after 7 d
Description: Spodoptera frugiperda Test (Spray Application)
as §2
Maize leave slices (Zea mays) are treated by being sprayed with the preparation of the active compound of the desired concentration and are infested with caterpillars of the fall army worm (Spodoptera frugiperda) after the leaves have dried.
as §3

SMILES	melting point	Kill rate in % after 2 d [1]	Kill rate in % after 4 d (Musca domestica)	also measured
CCSC[C@H](C)NC(=O)c1c(I)cccc1C(=O)Nc1ccc(C(F)(C(F)(F)F)C(F)(F)Br)cc1C (some centres unmarked) [Compound 1]	–	100%	–	–
CCSC[C@H](C)NC(=O)c1c(I)cccc1C(=O)Nc1ccc(C(C(F)F)C(F)(F)F)cc1C (some centres unmarked) [Compound 4]	–	100%	–	Kill rate in % after 7 d [2]: 100%
CCS(=O)(=O)C[C@H](C)NC(=O)c1c(I)cccc1C(=O)Nc1ccc(C(F)(C(F)F)C(F)(F)F)cc1Cl (some centres unmarked) [Compound 25]	–	90%	–	–
C[C@@H](CS(C)(=O)=O)NC(=O)c1c(I)cccc1C(=O)Nc1ccc(C(C(F)F)C(F)(F)F)cc1Br (some centres unmarked) [Compound 31]	–	–	100%	pest or weed control at 100 g/ha (Myzus persicae): 100%
C[C@@H](CS(C)(=O)=O)NC(=O)c1c(I)cccc1C(=O)Nc1ccc(C(F)(C(F)F)C(F)(F)F)cc1F (some centres unmarked) [Compound 32]	–	100%	100%	–
CCS(=O)(=O)C[C@H](C)NC(=O)c1c(I)cccc1C(=O)Nc1ccc(C(F)(C(F)F)C(F)(F)F)cc1F (some centres unmarked) [Compound 36]	–	100%	–	–
CCS(=O)(=O)C[C@H](C)NC(=O)c1c(I)cccc1C(=O)Nc1ccc(C(C(F)F)C(F)(F)F)cc1F (some centres unmarked) [Compound 37]	–	100%	–	–
CCS(=O)(=O)C[C@H](C)NC(=O)c1c(Br)cccc1C(=O)Nc1ccc(C(F)(C(F)F)C(F)(F)F)cc1Br (some centres unmarked) [Compound 69]	–	100%	–	pest or weed control at 20 g/ha (Spodoptera frugiperda): 100%

Second part, led by results:

melting point	SMILES	Kill rate in % after 2 d [1]	Kill rate in % after 4 d (Musca domestica)	also measured
105 °C	CCSC[C@H](C)NC(=O)c1c(I)cccc1C(=O)Nc1ccc(C(F)(C(F)F)C(F)(F)F)cc1C (some centres unmarked) [Compound 5]	–	100%	Kill rate in % after 7 d [2]: 100%
184 °C	CSC[C@H](C)NC(=O)c1c(I)cccc1C(=O)Nc1ccc(C(C(F)F)C(F)(F)F)cc1C (some centres unmarked) [Compound 11]	–	–	Kill rate in % after 7 d (Plutella xylostella): 100%
124 °C	Cc1cc(C(F)(C(F)F)C(F)(F)F)ccc1NC(=O)c1cccc(I)c1C(=O)N[C@@H](C)CS(C)(=O)=O (some centres unmarked) [Compound 18]	–	–	Kill rate in % after 7 d (Plutella xylostella): 100%
144 °C	CCSC[C@H](C)NC(=O)c1c(I)cccc1C(=O)Nc1ccc(C(C(F)F)C(F)(F)F)cc1F (some centres unmarked) [Compound 21]	–	100%	–
165 °C	CCSC[C@H](C)NC(=O)c1c(I)cccc1C(=O)Nc1ccc(C(C(F)F)C(F)(F)F)cc1Cl (some centres unmarked) [Compound 23]	–	–	Kill rate in % after 7 d [2]: 100%
160 °C	CCSC[C@H](C)NC(=O)c1c(I)cccc1C(=O)Nc1ccc(C(C(F)F)C(F)(F)F)cc1Br (some centres unmarked) [Compound 24]	–	–	Kill rate in % after 7 d [2]: 100%
116 to 120 °C	C[C@@H](CS(C)(=O)=O)NC(=O)c1c(I)cccc1C(=O)Nc1ccc(C(C(F)F)C(F)(F)F)cc1Cl (some centres unmarked) [Compound 28]	–	100%	–
144 to 147 °C	C[C@@H](CS(C)(=O)=O)NC(=O)c1c(I)cccc1C(=O)Nc1ccc(C(C(F)F)C(F)(F)F)cc1F (some centres unmarked) [Compound 33]	–	100%	Kill rate in % after 7 d [2]: 100%
122 °C	CCS(=O)(=O)C[C@H](C)NC(=O)c1c(I)cccc1C(=O)Nc1ccc(C(C(F)F)C(F)(F)F)cc1Br (some centres unmarked) [Compound 35]	–	100%	–
184 to 186 °C	CSC[C@H](C)NC(=O)c1c(Cl)cccc1C(=O)Nc1ccc(C(F)(C(F)(F)F)C(F)(F)Br)cc1C (some centres unmarked) [Compound 38]	–	–	Kill rate in % after 7 d (Plutella xylostella): 100%
100 °C	CCSC[C@H](C)NC(=O)c1c(Br)cccc1C(=O)Nc1ccc(C(C(F)F)C(F)(F)F)cc1Cl (some centres unmarked) [Compound 54]	–	–	Kill rate in % after 7 d (Plutella xylostella): 100%
138 to 142 °C	CSC[C@H](C)NC(=O)c1c(Br)cccc1C(=O)Nc1ccc(C(F)(C(F)F)C(F)(F)F)cc1Br (some centres unmarked) [Compound 67]	–	–	Kill rate in % after 7 d (Plutella xylostella): 100%
